Laboratory results as given in article PMC8197855, “Peptide/β-Peptoid Hybrids with Activity against Vancomycin-Resistant Enterococci: Influence of Hydrophobicity and Structural Features on Antibacterial and Hemolytic Properties” (International Journal of Molecular Sciences, 2021).
Values after ≈ are worked out from the molar mass of the structure shown. Values joined by “and” are separate entries in the source; they are usually repeats but may differ in a detail not shown here. Equal values may be shown once.

Legend:
[1] = test system: E. faecium ATCC 19434; experiment: Broth checkerboard assay with conventional antibiotics; type: cell-based, Enterococcus faecium; settings: antibiotic alone (-); BHI broth
Description: (§1) The strain culture preparation and final volume were the same as in the MIC assay. […] The plates were incubated for 24 h at 37 °C without shaking. […] All experiments were performed in two biological replicates.
(§2) To evaluate the effect of the combinations, the fractional inhibitory concentration index (FICI) was calculated for each combination according to:ΣFIC = FICA + FICB = (CA/MICA) + (CB/MICB)
(§3) The drug interaction was scored as follows: synergy—FICI ≤ 0.5; no interaction—FICI > 0.5–4; antagonism—FICI > 4 [40].

[2] = test system: E. faecalis ATCC 29212; experiment: as above; type: cell-based, Enterococcus faecalis; settings: antibiotic alone (-); BHI broth
Description: as §1, §2, §3

[3] = test system: E. faecium 3978; experiment: microbe, parasite or virus in culture; type: cell-based, Enterococcus faecium; settings: 3978, 24 h
Description: (§4) Overnight cultures of the enterococcal isolates were diluted in physiological saline (0.9% NaCl) to reach a turbidity of 0.5 McFarland units (Sensititre® nephelometer and the Sensititre® McFarland Standard). Bacterial suspensions were adjusted to 5 × 10^5 CFU/mL in MHB II or BHI broth containing two-fold dilutions of peptidomimetics or conventional antibiotics in a final volume of 100 µL. The plates were incubated for 24 h at 37 °C without shaking. […] All experiments were performed in three biological replicates.

[4] = test system: E. faecium D344R; experiment: microbe, parasite or virus in culture; type: cell-based, Enterococcus faecium; settings: E. faecium D344R, human clinical isolate; 24 h
Description: as §4

[5] = test system: E. faecium 2961; experiment: microbe, parasite or virus in culture; type: cell-based, Enterococcus faecium; settings: 2961, 24 h
Description: as §4

[6] = test system: E. faecium 1798; experiment: microbe, parasite or virus in culture; type: cell-based, Enterococcus faecium; settings: 1798, 24 h
Description: as §4

[7] = test system: E. faecalis ATCC 29212; experiment: microbe, parasite or virus in culture; type: cell-based, Enterococcus faecalis; settings: ATCC 29212, 24 h
Description: as §4, with “replicates. […]” for “replicates.”

[8] = test system: E. faecalis 38262; experiment: microbe, parasite or virus in culture; type: cell-based, Enterococcus faecalis
Description: as §4

[9] = test system: E. faecalis 39002; experiment: microbe, parasite or virus in culture; type: cell-based, Enterococcus faecalis; settings: 39002, 24 h
Description: as §4

[10] = Hemolytic activity; type: cell-based, human; settings: 37 °C, 1% red blood cell suspension; for hemolysis at 60 min, 400 µg/mL: human, human red blood cells (washed, 1% suspension)
Description: A suspension of hRBCs (Single-donor human red blood cells—washed; catalogue No. IPLA-W3 from Innovative researchTM) was washed three times with PBS buffer and centrifuged for 5 min at 2500 rpm. A two-fold serial dilution of compounds in PBS buffer was prepared. Plates (conical-bottomed 96-well plates) with 3 replicate wells per dilution, containing 1% red blood cell suspension, were prepared and dosed with the test compound to achieve a final concentration of 400 μg/mL in a total volume of 100 μL. The plates were incubated (37 °C) for 60 min with mild agitation, and then the cells were pelleted by centrifugation at 1500 rpm for 5 min. Then, the supernatants (50 μL) were transferred to a fresh 96-well plate, and then the concentration of hemoglobin was detected by measuring the OD at 405 nm. The OD of cells incubated with 1% SDS achieved 100% hemolysis, while the OD of cells incubated with PBS buffer achieved 0% hemolysis. The concentration tested was 400 μg/mL (only average values are stated in Table 3). The percent hemolysis was calculated by using the formula:Hemolysis(%) = 100 × [(Asample − Aneg.control)/(Apos. control − Aneg.control)]

[11] = test system: E. faecium ATCC 19434; experiment: microbe, parasite or virus in culture; type: cell-based, Enterococcus faecium; settings: ATCC 19434, 24 h
Description: as §4, with “replicates. […]” for “replicates.”

[12] = test system: HepG2 cell line ATCC HB-8065; experiment: Effect on HepG2 cell viability (MTT assay); type: cell-based, human; settings: 48 h
Description: The effect of peptidomimetics on mammalian cell viability was determined on the HepG2 cell line ATCC HB-8065. In brief, HepG2 cells were seeded into flat-bottom 96-well plates at a concentration of 5000 cells per well. The cells were incubated for 24 h in a humidified incubator (5% CO2, 37 °C). Subsequently, the medium was removed, and the cells were incubated for 48 h in a humidified incubator (5% CO2, 37 °C) with peptidomimetics in serial dilutions. An MTT assay was then performed; in brief, after incubation with the test compounds, the culture medium was removed and fresh medium with 0.2 mg/mL MTT was then added into each well. After incubation (3 h, 37 °C, 5% CO2), the medium with MTT was removed, and 200 μL dimethyl sulfoxide was added at once to each sample. The absorbance of MTT was measured using the spectrophotometer TECAN Infinite M1000 at 540 nm. The relative viability was calculated by using the formula:ODtreated cells × 100/ODcontrol cells
The IC50 values were calculated using the program Graph Pad Prism 5.0. For all compounds, the test range was 10–1280 μg/mL.

[13] = Hydrophobicity by analytical RP-HPLC (% MeCN at peak elution); type: physicochemical
Description: Water was filtered by using an Evoqua LaboStar PRO TWF Ultra Pure Water System prior to use in high-performance liquid chromatography (HPLC). The retention time for each peptidomimetic was determined by analytical HPLC using a Phenomenex Luna C18(2) HST column (100 mm × 3 mm; particle size: 2.5 μm; pore size: 100 Å) on a Shimadzu Prominence and Shimadzu Nexera system using an aqueous MeCN gradient with 0.1% trifluoroacetic acid (TFA) added (eluent A: 5:95 MeCN–H2O + 0.1% TFA; eluent B: 95:5 MeCN–H2O + 0.1% TFA); a flow rate of 0.5 mL/min was used. For the elution of peptidomimetics, a linear gradient of 0% to 60% B over 10 min was used with UV detection at λ = 220 nm. The percentage MeCN at peak elution was calculated from the retention time (tR) by using the following formula:%MeCN = [0.95 × 0.6 × tR/10 + 0.05 × (1 − 0.6 × tR/10)] × 100%

[14] = test system: E. faecium isolates; type: cell-based, Enterococcus faecium; settings: 24 h
Description: as §4

| MIC of antibiotic [1] | MIC of antibiotic [2] | SMILES | Minimum inhibitory concentration [3] | Minimum inhibitory concentration [4] | Minimum inhibitory concentration [5] | Minimum inhibitory concentration [6] | Minimum inhibitory concentration [7] | Minimum inhibitory concentration ([8]; 38262, 24 h) | Minimum inhibitory concentration [9] | hemolysis at 60 min, 400 µg/mL [10] | Minimum inhibitory concentration [11] | HepG2 IC50 [12] | hemolysis ([10]; 400 µg/mL, 60 min) | Hydrophobicity, Luna C18(2) HST (0–60% B; 10 min), retention converted into % MeCN [13] | Minimum inhibitory concentration ([8]; E. faecalis 38262, veterinary isolate, 24 h) | MIC (range or typical value) against E. faecium [14] |
| --- | --- | --- | --- | --- | --- | --- | --- | --- | --- | --- | --- | --- | --- | --- | --- | --- |
| 8 µg/mL | 1 µg/mL | CO[C@H]1/C=C/O[C@@]2(C)Oc3c(C)c(O)c4c(O)c(c(/C=N/N5CCN(C)CC5)c(O)c4c3C2=O)NC(=O)/C(C)=C\C=C\[C@H](C)[C@H](O)[C@@H](C)[C@@H](O)[C@@H](C)[C@H](OC(C)=O)[C@@H]1C [Rifampicin, rifampicin] | – | – | – | – | – | – | – | – | – | – | – | – | – | – |
| 4 to 8 µg/mL | 1 to 2 µg/mL | CC[C@H]1OC(=O)[C@H](C)[C@@H](O[C@H]2C[C@@](C)(OC)[C@@H](O)[C@H](C)O2)[C@H](C)[C@@H](O[C@@H]2O[C@H](C)C[C@H](N(C)C)[C@H]2O)[C@](C)(O)C[C@@H](C)CN(C)[C@H](C)[C@@H](O)[C@]1(C)O [Azithromycin, azithromycin] | – | – | – | – | – | – | – | – | – | – | – | – | – | – |
| 2 µg/mL | 2 µg/mL | CC(=O)NC[C@H]1CN(c2ccc(N3CCOCC3)c(F)c2)C(=O)O1 [Linezolid, linezolid] | – | – | – | – | – | – | – | – | – | – | – | – | – | – |
| – | – | NCCCC[C@H](NC(=O)CCN(Cc1cc(F)c(F)c(F)c1)C(=O)[C@H](CCCCN)NC(=O)CCN(Cc1cc(F)c(F)c(F)c1)C(=O)[C@H](CCCCN)NC(=O)CCN(Cc1cc(F)c(F)c(F)c1)C(=O)[C@H](CCCCN)NC(=O)CCN(Cc1cc(F)c(F)c(F)c1)C(=O)[C@H](CCCCN)NC(=O)CCN(Cc1cc(F)c(F)c(F)c1)C(=O)[C@@H](N)CCCCN)C(=O)N(CCC(N)=O)Cc1cc(F)c(F)c(F)c1 [Compound 8, H-[Lys-βNPhe(F3)]6-NH2] | 2 µg/mL (≈ 0.963 µM) | 2 µg/mL (≈ 0.963 µM) | 2 µg/mL (≈ 0.963 µM) | 2 to 4 µg/mL | 2 to 4 µg/mL | 8 to 16 µg/mL | 2 µg/mL (≈ 0.963 µM) | > 20% | 2 to 4 µg/mL | 27 µg/mL | – | – | – | – |
| – | – | NCCCC[C@H](NC(=O)CCN(CC1CCCCC1)C(=O)[C@H](CCCCN)NC(=O)CCN(CC1CCCCC1)C(=O)[C@H](CCCCN)NC(=O)CCN(CC1CCCCC1)C(=O)[C@H](CCCCN)NC(=O)CCN(CC1CCCCC1)C(=O)[C@H](CCCCN)NC(=O)CCN(CC1CCCCC1)C(=O)[C@H](CCCCN)NC(=O)CCN(CC1CCCCC1)C(=O)[C@H](CCCCN)NC(=O)CCN(CC1CCCCC1)C(=O)[C@@H](N)CCCCN)C(=O)N(CCC(N)=O)CC1CCCCC1 [Compound 9, H-[Lys-βNCha]8-NH2] | 2 to 4 µg/mL | – | 2 to 4 µg/mL | 2 to 4 µg/mL | 2 to 4 µg/mL | 8 µg/mL (≈ 3.36 µM) | 4 µg/mL (≈ 1.68 µM) | – | 2 to 4 µg/mL | – | > 20% | – | – | – |
| – | – | CCCCCCCCCCCC(=O)N[C@@H](CCCCN)C(=O)N(CCC(=O)N[C@@H](CCCCN)C(=O)N(CCC(=O)N[C@@H](CCCCN)C(=O)N(CCC(=O)N[C@@H](CCCCN)C(=O)N(CCC(=O)N[C@@H](CCCCN)C(=O)N(CCC(=O)N[C@@H](CCCCN)C(=O)N(CCC(N)=O)Cc1ccccc1)Cc1ccccc1)Cc1ccccc1)Cc1ccccc1)Cc1ccccc1)Cc1ccccc1 [Compound 11, Lau-[Lys-βNPhe]6-NH2] | 2 to 4 µg/mL | 2 to 4 µg/mL | 2 to 4 µg/mL | 2 to 4 µg/mL | 4 µg/mL (≈ 2.07 µM) | 4 to 8 µg/mL | 4 to 8 µg/mL | – | 4 µg/mL (≈ 2.07 µM) | 22 µg/mL | – | – | – | – |
| 64 µg/mL | 16 µg/mL | CNC(C)C1CCC(N)C(OC2C(N)CC(N)C(OC3OCC(C)(O)C(NC)C3O)C2O)O1 (centres unmarked) [Gentamicin, gentamicin] | – | – | – | – | – | – | – | – | – | – | – | – | – | – |
| – | – | NCCCC[C@H](NC(=O)CCN(Cc1ccc(F)cc1)C(=O)[C@H](CCCCN)NC(=O)CCN(Cc1ccc(F)cc1)C(=O)[C@H](CCCCN)NC(=O)CCN(Cc1ccc(F)cc1)C(=O)[C@H](CCCCN)NC(=O)CCN(Cc1ccc(F)cc1)C(=O)[C@H](CCCCN)NC(=O)CCN(Cc1ccc(F)cc1)C(=O)[C@H](CCCCN)NC(=O)CCN(Cc1ccc(F)cc1)C(=O)[C@H](CCCCN)NC(=O)CCN(Cc1ccc(F)cc1)C(=O)[C@@H](N)CCCCN)C(=O)N(CCC(N)=O)Cc1ccc(F)cc1 [Compound 7, H-[Lys-βNPhe(F)]8-NH2] | 4 to 8 µg/mL | 4 to 8 µg/mL | 2 to 4 µg/mL | 2 to 4 µg/mL | 8 to 16 µg/mL | – | 8 to 16 µg/mL | 1.5% | 8 to 16 µg/mL | 50 µg/mL | – | 41.3 % MeCN | > 32 µg/mL | – |
| – | – | C[C@@H](c1ccccc1)N(CCC(N)=O)C(=O)[C@H](CCCCN)NC(=O)CCN(C(=O)[C@H](CCCCNC(=N)N)NC(=O)CCN(C(=O)[C@H](CCCCN)NC(=O)CCN(C(=O)[C@H](CCCCNC(=N)N)NC(=O)CCN(C(=O)[C@H](CCCCN)NC(=O)CCN(C(=O)[C@H](CCCCNC(=N)N)NC(=O)CNCCCNCCCCNCCCN)[C@@H](C)c1ccccc1)[C@@H](C)c1ccccc1)[C@@H](C)c1ccccc1)[C@@H](C)c1ccccc1)[C@@H](C)c1ccccc1 [Compound 3, SpermineAc-[hArg-βNspe-Lys-βNspe]3-NH2] | 8 µg/mL (≈ 3.63 µM) | 4 to 8 µg/mL | 8 µg/mL (≈ 3.63 µM) | 4 to 8 µg/mL | >32 µg/mL | – | – | 0.6% | 16 to 32 µg/mL | 41 µg/mL | – | 40 % MeCN and 40.2 % MeCN | – | 4 to 8 µg/mL |
